Measurements taken from patent publication US8785459B2, “Quinazoline compounds as kinase inhibitors” (Development Center for Biotechnology, priority 2011, dated 2014).

What was measured:
[1] = Body weight of A375 tumor-bearing NOD/SCID mice under treatment; format: in vivo; conditions: A375 xenograft, 50 mg/kg i.p. qd x 28
Experimental: (§1) In Vivo Anti-Cancer Activities
(§2) A375 (1×10^6 cell/mouse) tumor cells were subcutaneously injected into the right flank of 5 week old male NOD/SCID mice (BioLASCO, Taiwan). Tumor volume was measured with a digital caliper once tumor was palpable (within 10 to 15 days after implantation). Compound treatment was started after 1-3 weeks when the tumors had reached an average volume of ˜50 to 100 mm^3. Mice were divided into 5 groups as listed in Table 6 below and were given intraperitoneal injections with the test compound at 50 mg/kg, or vehicle control (DMSO:Cremophor:PBS (pH 7.4)=[…]) one time every day. The test compound, 58, was formulated in a solution of 5% DMSO, 10% Cremophor, and 85% PBS. The positive control, PLX4032, was dissolved in 100% PBS. Body weights of the mice were measured every two to three days and the tumor sizes in different groups of mice were measured by digital caliper every two to three days.

A375 tumor cells = assay: In vivo anti-cancer activity, subcutaneous A375 tumor in NOD/SCID mice; conditions: A375 xenograft, 50 mg/kg i.p. qd x 28
Experimental: as §1, §2

**Q.** With `COc1cc(-c2ccc3ncnc(Nc4cc(O)ccc4F)c3c2)ccc1O` [Compound 58, 4-(4-(2-fluoro-5-hydroxyphenylamino)quinazolin-6-yl)-2-methoxyphenol] as the compound, how does the weight loss [1] read?
**A.** without inducing significant weight loss

**Q.** And the “tumor growth in vivo” value (A375 tumor cells)?
**A.** inhibited tumor growth in vivo
